How the values were obtained:
[1] = target: T1, flTau aggregates (longest isoform of human Tau, 2N4R; 441 amino acids) (Homo sapiens, UniProt P10636); assay: Full-length Tau (flTau) disaggregation assay by Thioflavin T (ThT); format: biochemical; conditions: 2 μM flTau aggregates, 160 to 0.04 μM compound, 30 minutes RT, ThT fluorescence
T1 construct: 35 μM of recombinant full-length (fl)Tau in PBS were aggregated for 24 hours; made in house; host or cells: bacteria
Method: Biological Assay Description Full-Length Tau (flTau) Disaggregation Assay by Thioflavin T (ThT)
The longest isoform of human Tau (2N4R; 441 amino acids) was expressed in bacteria and purified. For the Tau disaggregation assay by ThT, 35 μM of recombinant full-length (fl)Tau in PBS were aggregated for 24 hours at 37° C. in presence of 50 μM of heparin (Sigma-Aldrich) and 10 mM of DTT (Sigma-Aldrich) under shaking at 750 RPM. Compounds were dissolved in anhydrous dimethyl sulfoxide (DMSO, Sigma-Aldrich) to reach a concentration of 10 mM.
(§1) flTau aggregates and serial dilutions of compounds were mixed together in PBS (volume 50 μL) to a final concentration of 2 μM of flTau aggregates and from 160 to 0.04 μM of compounds. The mixture was incubated for 30 minutes at room temperature (RT), then 40 μL of this mixture were transferred into a black 384-well plate assay (Perkin-Elmer) and mixed with 10 μL of 100 μM ThT in 250 mM glycine (both from Sigma-Aldrich) in PBS. Fluorescence (relative fluorescence units; RFU) was measured in monoplicate or duplicate on a Tecan reader (excitation: 440 nm; emission: 485 nm). Percentage of flTau disaggregation was then calculated and the halfmaximal effective concentration (EC50) was determined using GraphPad Prism version 5 (GraphPad Software) assuming a one-binding site fitting model.

[2] = target: T2, K18 aggregates (Tau K18 fragment, amino acids 244 to 372 of human Tau441) (Homo sapiens, UniProt P10636); assay: Tau K18 disaggregation assay by ThT; format: biochemical; conditions: 2 μM K18 aggregates, 160 to 0.04 μM compound, 30 minutes RT, ThT fluorescence; read-out: TauK18 disaggregation EC50
T2 construct: encompassing amino acids 244 to 372 of the longest isoform (2N4R) of human Tau441; host or cells: bacteria
Method: Tau K18 Disaggregation Assay by ThT
as §1, with “The Tau K18 fragment, encompassing amino acids 244 to 372 of the longest isoform (2N4R) of human Tau441, was expressed in bacteria and purified or bought from SignalChem. For the K18 disaggregation assay by ThT, 35 μM of recombinant K18 in PBS were aggregated for 24 hours at 37° C. in presence of 50 μM of heparin (Sigma-Aldrich) and 10 mM of DTT (Sigma-Aldrich) under shaking at 750 RPM. Compounds were dissolved in anhydrous dimethyl sulfoxide (DMSO, Sigma-Aldrich) to reach a concentration of 10 mM. K18 aggregates” for “flTau aggregates”, “of K18” for “of flTau”, “and half maximal” for “and the halfmaximal”

[3] = tested on: human neuroblastoma cell line overexpressing the full-length form of human Tau carrying the P301L mutation; assay: Reduction of intracellular Tau aggregation (AlphaLISA); format: cell-based; conditions: compound at 5 μM, 24 h; aggregated Tau normalized to total Tau, relative to DMSO-treated cells
Method: Reduction of Intracellular Tau Aggregation
A human neuroblastoma cell line overexpressing the full-length form of human Tau carrying the P301L mutation was cultured in complete medium [DMEM-F12 4.5 g/L Glutamax (Invitrogen), 15% FBS (Biochrom), 1% Peni/Strep (Invitrogen) supplemented with 2.5 μg/ml of G418 (Sigma-Aldrich) selection antibiotic]. The day before the experiment 5×10^5 cells/well were plated in a 6 well plate in 3 mL of complete medium. The next day, cells were incubated with DMSO or a compound of the present invention at a 5 μM for additional 24 h at 37° C. After incubation, cells were trypsinized, resupsended in 100 μl of homogenization buffer [25 mM Tris-HCl pH 7.4, 150 mM NaCl, 1 mM EDTA, 1 mM EGTA containing phosphatase inhibitors (30 mM NaF, 0.2 mM Na3VO4, 1 nM Okadaic acid, 1 mM PMSF, 5 mM Na4P2O7) and protease inhibitor cocktail (Complete™, Roche)], and then physically lysed with three rapid cycles of freezing and thawing. Samples were then directly tested in the AlphaLISA assay.
Phosphorylated, aggregated, and total Tau were quantified by AlphaLisa using the following antibody pairs: • HT7-Acceptor beads+biotin (BT)-Tau13-Donor beads: Total Tau • HT7-Acceptor beads+biotin (BT)-HT7-Donor beads: Aggregated human Tau
The Tau13 (Abcam) was biotinylated using EZ-Link® NHS-PEO Solid Phase biotinylation kit (Thermo Scientific), while the HT7-biotin was from a commercial source (Thermo Scientific).
For each antibody pairs the concentration of acceptor beads and biotinylated antibodies was optimized. All samples were first tested in a dilution series in PBS in order to identify the linear range and optimal dilution for each sample and assay. For the final protocol, the following reagents were added in a 384-well white OptiPlate (Perkin Elmer): • 5 μL of test diluted sample • 20 μL of the mixture biotin-mAb acceptor beads at the following final concentrations: • HT7-BT at 1.25 nM in combination with HT7-Acc beads at 10 μg/ml • Tau13-BT at 5 nM in combination with HT7-Acc beads at 2.5 μg/ml
After incubation of this mixture at room temperature for 1 h, 25 μL of Streptavidin Donor beads (Perkin Elmer) at 25 μg/mL were added in the dark. Plates were analyzed after 30 min incubation using the EnSpire Alpha instrument and EnSpire Workstation version 3.00.
Data for aggregated Tau were normalized to total Tau and then expressed as percentage of the DMSO-treated cells.

T2 sequence (P10636 561-689): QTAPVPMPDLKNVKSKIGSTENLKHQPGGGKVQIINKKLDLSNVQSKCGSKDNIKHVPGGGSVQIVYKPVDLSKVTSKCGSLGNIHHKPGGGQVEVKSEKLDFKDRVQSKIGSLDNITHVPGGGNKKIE
T1 sequence (P10636 1-441 isoform P10636-8): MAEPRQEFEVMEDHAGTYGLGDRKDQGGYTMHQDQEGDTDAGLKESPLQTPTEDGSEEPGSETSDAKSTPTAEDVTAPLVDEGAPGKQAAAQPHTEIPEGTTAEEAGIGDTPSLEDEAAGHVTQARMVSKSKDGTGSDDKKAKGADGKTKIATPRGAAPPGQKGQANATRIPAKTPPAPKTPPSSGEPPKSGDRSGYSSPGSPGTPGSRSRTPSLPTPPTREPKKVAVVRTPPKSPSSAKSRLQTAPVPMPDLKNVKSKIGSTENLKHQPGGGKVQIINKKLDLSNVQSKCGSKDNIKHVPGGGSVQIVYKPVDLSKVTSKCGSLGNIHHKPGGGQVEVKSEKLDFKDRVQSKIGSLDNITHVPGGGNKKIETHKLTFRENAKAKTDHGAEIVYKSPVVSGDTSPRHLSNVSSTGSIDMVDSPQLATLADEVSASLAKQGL

EC50 [1] [µM] | EC50 [2] [µM] | SMILES | % Reduction of intracellular Tau aggregation [3]
< 10 | < 10 | CN(C)[C@@H]1CCc2c(c3ccc(Nc4ccc5nc(N6CCOCC6)sc5c4)nc3n2C)C1 [Example 12] | ++ (++ %50 < x < 25)
< 10 | < 10 | CN(C)[C@@H]1CCc2c(c3ccc(Nc4ccc5sc(N6CCOCC6)nc5c4)nc3n2C)C1 [Example 2] | + (+ %25 < x < 10)
< 10 | 10 to 25 | CC(C)N1CCc2c(c3ccc(Nc4ccc5nc(N6CCOCC6)sc5c4)nc3n2C)C1 [Example 1] | + (+ %25 < x < 10)

Reference: patent US12202840B2, “Compounds for the treatment or alleviation of disorders associated with Tau aggregates” (AC Immune SA, priority 2018, dated 2025)
